The target in experiment [1] is human KLK1 (Homo sapiens, UniProt P06870). Kind of experiment: Determination of related protease inhibition: KLK1. It is filed as biochemical. The procedure: (§1) In vitro inhibition of related proteases was determined using an IC50 assay based on standard literature methods (see e.g. Shori et al., Biochem. Pharmacol., 1992,43, 1209; Bouckaert et al., European Journal of Medicinal Chemistry 110 (2016) 181). Human serine protease enzyme Plasma Kallikrein, KLK1, FXa, Plasmin, Thrombin and Trypsin were assayed for enzymatic activity using an appropriate fluorogenic substrate at Km concentration, FXIa at fixed substrate concentration of 100 μM and various concentrations of the test compound. Protease activity was measured by monitoring the accumulation of liberated fluorescence from the substrate over 5 min at 25 °C. The linear rate of fluorescence increase per minute was expressed as percentage (%) activity. IC50 values were calculated as the concentration of inhibitor giving 50% inhibition of the uninhibited enzyme activity (100%).
human KLK1, sequence (P06870 25-262): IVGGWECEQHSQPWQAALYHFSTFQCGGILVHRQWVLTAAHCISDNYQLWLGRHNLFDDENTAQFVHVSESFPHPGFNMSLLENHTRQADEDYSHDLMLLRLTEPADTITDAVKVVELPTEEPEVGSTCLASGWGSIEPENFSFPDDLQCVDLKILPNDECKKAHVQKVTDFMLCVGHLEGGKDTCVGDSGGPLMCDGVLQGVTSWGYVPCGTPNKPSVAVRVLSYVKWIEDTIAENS

Experiment [2] has as its target human FXa (Homo sapiens, UniProt P00742). Kind of experiment: Determination of related protease inhibition: FXa. In kind it is biochemical. The procedure:
as §1

For experiment [3], the target named is T1, human PKal (Homo sapiens, UniProt P03952).
T1 construct: FXIIa converts plasma prekallikrein (PK) to plasma kallikrein (PKa)
T1 sequence (P03952 391-638 limits assumed): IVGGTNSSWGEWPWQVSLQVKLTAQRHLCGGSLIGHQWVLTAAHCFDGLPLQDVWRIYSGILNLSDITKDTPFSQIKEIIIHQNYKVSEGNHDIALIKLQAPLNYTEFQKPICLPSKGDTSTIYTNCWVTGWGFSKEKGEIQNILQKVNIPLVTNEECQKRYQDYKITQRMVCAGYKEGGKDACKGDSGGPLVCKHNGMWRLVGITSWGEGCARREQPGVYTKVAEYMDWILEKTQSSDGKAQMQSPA
T1 sequence (P03952 20-390 partner limits assumed): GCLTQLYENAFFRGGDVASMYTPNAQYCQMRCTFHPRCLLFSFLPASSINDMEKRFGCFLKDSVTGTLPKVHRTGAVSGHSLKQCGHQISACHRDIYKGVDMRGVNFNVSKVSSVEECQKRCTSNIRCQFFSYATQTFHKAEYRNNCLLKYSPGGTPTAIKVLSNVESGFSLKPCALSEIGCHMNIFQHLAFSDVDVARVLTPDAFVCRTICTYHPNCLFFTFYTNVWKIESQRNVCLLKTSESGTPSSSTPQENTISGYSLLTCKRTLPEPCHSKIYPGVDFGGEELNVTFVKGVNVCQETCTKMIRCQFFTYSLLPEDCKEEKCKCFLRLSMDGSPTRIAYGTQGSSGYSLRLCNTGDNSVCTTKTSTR
Kind of experiment: Determination of related protease inhibition: plasma kallikrein. It is filed as biochemical. Here is the method: as §1

The target in experiment [4] is human thrombin (Homo sapiens, UniProt P00734). As to the kind of experiment: Determination of related protease inhibition: thrombin. In kind it is biochemical. Here is the method: as §1
For experiment [5], the target named is human FXIa (Homo sapiens, UniProt P03951). Kind of experiment: Determination of related protease inhibition: FXIa. It is filed as biochemical. The procedure: as §1
human FXIa, sequence (P03951 388-625 limits assumed): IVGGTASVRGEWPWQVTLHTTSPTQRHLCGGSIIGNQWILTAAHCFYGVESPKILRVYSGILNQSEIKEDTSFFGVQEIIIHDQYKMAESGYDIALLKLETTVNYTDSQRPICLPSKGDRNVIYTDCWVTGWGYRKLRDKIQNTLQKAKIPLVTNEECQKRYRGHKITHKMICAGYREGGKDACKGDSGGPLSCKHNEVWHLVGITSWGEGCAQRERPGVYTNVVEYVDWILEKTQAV
human FXIa, sequence (P03951 19-387 partner limits assumed): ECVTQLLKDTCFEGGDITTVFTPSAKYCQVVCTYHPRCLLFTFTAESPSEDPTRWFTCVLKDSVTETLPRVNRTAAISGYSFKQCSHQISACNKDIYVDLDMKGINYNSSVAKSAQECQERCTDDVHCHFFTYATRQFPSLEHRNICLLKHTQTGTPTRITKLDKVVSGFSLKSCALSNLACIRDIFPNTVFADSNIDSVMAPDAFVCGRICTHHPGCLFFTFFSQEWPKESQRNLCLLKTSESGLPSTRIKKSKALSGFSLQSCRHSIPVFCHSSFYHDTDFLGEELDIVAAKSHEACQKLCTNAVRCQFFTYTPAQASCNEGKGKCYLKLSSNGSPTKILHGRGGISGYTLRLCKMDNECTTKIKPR
Experiment [6] concerns the target T2, Human Factor XIIa (Homo sapiens, UniProt P00748).
T2 construct: purchased Enzyme Research Laboratories
T2 sequence (P00748 373-615 limits assumed): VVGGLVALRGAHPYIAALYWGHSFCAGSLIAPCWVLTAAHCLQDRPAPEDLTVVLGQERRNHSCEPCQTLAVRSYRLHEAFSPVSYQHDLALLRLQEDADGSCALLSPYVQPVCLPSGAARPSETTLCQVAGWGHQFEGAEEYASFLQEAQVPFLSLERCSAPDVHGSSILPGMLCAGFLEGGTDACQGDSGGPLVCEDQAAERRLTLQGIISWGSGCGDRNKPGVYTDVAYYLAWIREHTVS
T2 sequence (P00748 20-372 partner limits assumed): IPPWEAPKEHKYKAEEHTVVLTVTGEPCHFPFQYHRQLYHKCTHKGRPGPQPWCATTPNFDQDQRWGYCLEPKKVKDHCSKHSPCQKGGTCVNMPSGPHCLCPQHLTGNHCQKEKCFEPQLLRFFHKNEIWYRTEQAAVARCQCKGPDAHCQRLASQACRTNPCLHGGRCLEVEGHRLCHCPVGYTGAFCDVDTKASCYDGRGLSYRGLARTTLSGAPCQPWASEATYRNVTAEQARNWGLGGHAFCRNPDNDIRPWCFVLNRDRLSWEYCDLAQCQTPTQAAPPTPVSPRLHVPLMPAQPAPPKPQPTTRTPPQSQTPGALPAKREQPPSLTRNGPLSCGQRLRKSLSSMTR
Kind of experiment: Determination of FXIIa inhibition (in vitro IC50 assay, fluorogenic substrate H-DPro-Phe-Arg-AFC). In kind it is biochemical. In outline:
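Human FXIIa incubated at 25 °C with compound and H-DPro-Phe-Arg-AFC at its Km concentration. Linear fluorescence increase monitored over 5 min, expressed as % of uninhibited activity; IC50 is concentration giving 50% inhibition.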

Experiment [7] addresses human plasmin (Homo sapiens, UniProt P00747). As to the kind of experiment: Determination of related protease inhibition: plasmin. In kind it is biochemical. The procedure: as §1
The test system of experiment [8] is human trypsin. As to the kind of experiment: Determination of related protease inhibition: trypsin. In kind it is biochemical. The note with it: fluorogenic substrate at Km concentration, 25 °C. The procedure: as §1
Experiment [9] relates to patients with type I/II hereditary angioedema (HAE). As to conditions: phase 3, monthly prophylactic subcutaneous treatment; cited from earlier work.
Setting [10] is: fluorogenic substrate at Km concentration, 25 °C, read-out: IC50 (human KLK1).
Where [11] appears, read: fluorogenic substrate at Km concentration, 25 °C, read-out: IC50 (human FXa).
The mark [12] stands for this setting: fluorogenic substrate at Km concentration, 25 °C, read-out: IC50 (human PKal).
The mark [13] stands for this setting: fluorogenic substrate at Km concentration, 25 °C, read-out: IC50 (human thrombin).
Setting [14] is: human Factor XIIa, fluorogenic substrate H-DPro-Phe-Arg-AFC at Km concentration, 5 min, 25 °C, class symbols, read-out: Human FXIIa IC50.
[15] abbreviates: fluorogenic substrate at Km concentration, 25 °C, read-out: IC50 (human plasmin).

Read-outs that look alike come from different tables or passages of the source.

Data on 6 compounds can be found in patent publication US20260347347A1, “2-AZA-AND 2-OXABICYCLO[2.1.1]HEXANE DERIVATIVES AS FACTOR XIIA ENZYME INHIBITORS” (KALVISTA PHARMACEUTICALS LIMITED, priority 2022, published 2026).

The term IC50 denotes the point on the concentration scale where inhibition reaches its midpoint.

human plasmin, sequence (P00747 581-810 limits assumed): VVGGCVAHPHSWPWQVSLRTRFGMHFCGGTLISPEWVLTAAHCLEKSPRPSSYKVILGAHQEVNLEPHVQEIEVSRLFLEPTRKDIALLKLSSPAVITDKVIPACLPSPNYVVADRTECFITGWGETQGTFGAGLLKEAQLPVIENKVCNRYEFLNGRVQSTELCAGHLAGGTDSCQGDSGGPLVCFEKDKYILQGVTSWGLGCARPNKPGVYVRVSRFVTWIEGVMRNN
human plasmin, sequence (P00747 97-580 partner limits assumed): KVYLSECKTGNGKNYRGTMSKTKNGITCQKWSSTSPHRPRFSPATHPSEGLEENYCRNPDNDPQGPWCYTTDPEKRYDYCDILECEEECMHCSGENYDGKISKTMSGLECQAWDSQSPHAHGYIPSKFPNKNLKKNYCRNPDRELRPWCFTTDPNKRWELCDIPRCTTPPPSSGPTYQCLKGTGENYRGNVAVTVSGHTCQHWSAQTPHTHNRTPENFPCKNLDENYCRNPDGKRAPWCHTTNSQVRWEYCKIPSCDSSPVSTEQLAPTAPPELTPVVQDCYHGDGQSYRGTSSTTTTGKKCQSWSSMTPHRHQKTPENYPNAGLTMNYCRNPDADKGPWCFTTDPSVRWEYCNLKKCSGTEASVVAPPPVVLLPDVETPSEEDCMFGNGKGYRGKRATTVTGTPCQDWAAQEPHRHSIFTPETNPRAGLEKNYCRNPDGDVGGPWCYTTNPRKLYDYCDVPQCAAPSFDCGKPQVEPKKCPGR
human FXa, sequence (P00742 235-488 limits assumed): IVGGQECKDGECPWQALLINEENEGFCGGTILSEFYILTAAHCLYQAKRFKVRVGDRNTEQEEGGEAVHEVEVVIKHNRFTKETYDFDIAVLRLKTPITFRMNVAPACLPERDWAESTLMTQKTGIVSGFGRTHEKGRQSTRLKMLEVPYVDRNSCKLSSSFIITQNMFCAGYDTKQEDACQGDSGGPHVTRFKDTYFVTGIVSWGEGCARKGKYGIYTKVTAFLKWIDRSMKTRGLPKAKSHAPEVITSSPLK
human FXa, sequence (P00742 41-179 partner limits assumed): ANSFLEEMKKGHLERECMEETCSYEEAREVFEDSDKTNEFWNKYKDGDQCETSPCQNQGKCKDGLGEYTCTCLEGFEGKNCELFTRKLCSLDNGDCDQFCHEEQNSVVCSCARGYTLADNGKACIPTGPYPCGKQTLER

Consider `Cn1ccc(OCC23CN(C(=O)NC4(c5ccccc5)CC4)C(CNc4cccc5c(N)nccc45)(C2)C3)cc1=O` [Example 30, 1-(((1-Aminoisoquinolin-5-yl)amino)methyl)-4-(((1-methyl-2-oxo-1,2-dihydropyridin-4-yl)oxy)methyl)-N-(1-phenylcyclopropyl)-2-azabicyclo[2.1.1]hexane-2-carboxamide], for which the half-maximal inhibitory concentration (IC50) in [1] is 1 to 3 µM; in [2], 10 to 40 µM; in [3] it was 10 to 40 µM; in [4] it was over 40 µM; in experiment [5], 3 to 10 µM; in experiment [6] it was 0.001 to 0.01 µM. Also, in [7], the IC50 fell in the range of 10 to 40 µM.
As to `Cn1ccc(OCC23CN(C(=O)CC4CCCCC4)C(CNc4cccc5c(N)nccc45)(C2)C3)cc1=O` [Example 5, 4-((1-(((1-aminoisoquinolin-5-yl)amino)methyl)-2-(2-cyclohexylacetyl)-2-azabicyclo[2.1.1]hexan-4-yl)methoxy)-1-methylpyridin-2(1H)-one], the IC50 in experiment [1] (setting [10]) is 1 to 3 µM; in [2] (setting [11]), 10 to 40 µM; in [3] (setting [12]) it was over 40 µM; in experiment [4] (setting [13]) it was 10 to 40 µM; in [6] (setting [14]), 0.01 to 0.1 µM; in [8] it was 10 to 40 µM. Also, in experiment [7] (setting [15]), the IC50 lay within 3 to 10 µM.
Consider `Cc1cc(OCC23CN(C(=O)C4CC5(CCOCC5)C4)C(CNc4cccc5c(N)nccc45)(C2)C3)cc(=O)n1C` [Example 20, 4-((1-(((1-aminoisoquinolin-5-yl)amino)methyl)-2-(7-oxaspiro[3.5]nonane-2-carbonyl)-2-azabicyclo[2.1.1]hexan-4-yl)methoxy)-1,6-dimethylpyridin-2(1H)-one], for which the IC50 is 10 to 40 µM in experiment [1] (setting [10]); 10 to 40 µM in [2] (setting [11]); over 40 µM in experiment [3] (setting [12]); over 40 µM in experiment [4] (setting [13]); 10 to 40 µM in experiment [5] (fixed substrate concentration of 100 μM, 25 °C, read-out: IC50 (human FXla)); 0.01 to 0.1 µM in [6] (setting [14]). Further, the IC50 in [7] (setting [15]) is 10 to 40 µM.
As for “Garadacimab: Garadacimab (CSL-312), a monoclonal antibody inhibitory against FXIIa”, the “attacks in patients with type I/II hereditary angioedema” value in experiment [9] is listed as “reduce attacks”.
For `Cn1ccc(OCC23CN(C(=O)N4CC5(CCC5)C4)C(CNc4cccc5c(N)nccc45)(C2)C3)cc1=O` [Example 51, 4-((1-(((1-aminoisoquinolin-5-yl)amino)methyl)-2-(2-azaspiro[3.3]heptane-2-carbonyl)-2-azabicyclo[2.1.1]hexan-4-yl)methoxy)-1-methylpyridin-2(1H)-one], the IC50 in experiment [6] (setting [14]) fell in the range of 0.01 to 0.1 µM.
On to `Cc1cc(OCC23CN(C(=O)N(C)C[C@H]4CCOC4)C(CNc4cccc5c(N)nccc45)(C2)C3)cc(=O)n1C` [Example 48, (R)-1-(((1-aminoisoquinolin-5-yl)amino)methyl)-4-(((1,6-dimethyl-2-oxo-1,2-dihydropyridin-4-yl)oxy)methyl)-N-methyl-N-((tetrahydrofuran-3-yl)methyl)-2-azabicyclo[2.1.1]hexane-2-carboxamide], for which the IC50 in experiment [6] (setting [14]) lay within 0.01 to 0.1 µM.
